According to paper PMC10882491 (Chemical Science, 2024):

Columns and labels:
GRK2 = target: T1, GRK2 (Homo sapiens, UniProt P25098); experiment: western blot CETSA, isothermal dose-response at […] °C; format: biochemical
T1 sequence (P25098 1-689): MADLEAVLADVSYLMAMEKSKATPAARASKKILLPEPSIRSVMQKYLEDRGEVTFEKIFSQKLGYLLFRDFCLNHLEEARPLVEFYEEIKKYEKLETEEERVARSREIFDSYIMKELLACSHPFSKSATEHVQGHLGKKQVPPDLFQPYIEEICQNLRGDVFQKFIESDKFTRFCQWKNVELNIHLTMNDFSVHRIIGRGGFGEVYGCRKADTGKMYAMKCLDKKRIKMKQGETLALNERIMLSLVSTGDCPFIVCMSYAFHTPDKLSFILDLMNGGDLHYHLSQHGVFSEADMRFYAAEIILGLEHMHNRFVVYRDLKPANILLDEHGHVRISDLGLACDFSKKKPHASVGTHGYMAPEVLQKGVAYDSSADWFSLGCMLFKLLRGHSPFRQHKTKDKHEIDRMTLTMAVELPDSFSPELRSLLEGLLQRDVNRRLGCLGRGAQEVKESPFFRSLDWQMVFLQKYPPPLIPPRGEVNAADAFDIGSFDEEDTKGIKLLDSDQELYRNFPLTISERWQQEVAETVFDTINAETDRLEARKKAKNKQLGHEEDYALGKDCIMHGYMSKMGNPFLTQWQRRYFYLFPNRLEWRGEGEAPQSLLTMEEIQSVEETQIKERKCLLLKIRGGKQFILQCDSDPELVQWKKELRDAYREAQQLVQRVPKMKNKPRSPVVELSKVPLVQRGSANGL

AURKA = target: T2, AURKA (Homo sapiens, UniProt O14965); experiment: single-temperature TPP with PRM-MS in K562 lysate; format: cell-based
T2 sequence (O14965 1-403): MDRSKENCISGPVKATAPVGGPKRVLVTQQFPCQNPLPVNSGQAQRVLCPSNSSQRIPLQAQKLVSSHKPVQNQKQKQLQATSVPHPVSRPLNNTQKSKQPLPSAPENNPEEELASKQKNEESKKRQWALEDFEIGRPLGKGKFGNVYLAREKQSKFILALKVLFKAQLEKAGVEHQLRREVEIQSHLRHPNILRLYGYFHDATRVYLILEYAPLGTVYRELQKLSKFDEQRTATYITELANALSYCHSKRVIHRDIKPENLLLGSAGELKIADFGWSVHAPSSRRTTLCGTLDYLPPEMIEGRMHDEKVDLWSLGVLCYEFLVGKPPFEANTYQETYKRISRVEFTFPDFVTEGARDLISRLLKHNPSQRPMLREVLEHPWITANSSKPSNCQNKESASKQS

PIP4K2C = PIP4K2C (Homo sapiens, UniProt Q8TBX8); experiment: NanoBRET target engagement in living HEK293 cells; format: cell-based
Sequence of PIP4K2C (Q8TBX8 2-421): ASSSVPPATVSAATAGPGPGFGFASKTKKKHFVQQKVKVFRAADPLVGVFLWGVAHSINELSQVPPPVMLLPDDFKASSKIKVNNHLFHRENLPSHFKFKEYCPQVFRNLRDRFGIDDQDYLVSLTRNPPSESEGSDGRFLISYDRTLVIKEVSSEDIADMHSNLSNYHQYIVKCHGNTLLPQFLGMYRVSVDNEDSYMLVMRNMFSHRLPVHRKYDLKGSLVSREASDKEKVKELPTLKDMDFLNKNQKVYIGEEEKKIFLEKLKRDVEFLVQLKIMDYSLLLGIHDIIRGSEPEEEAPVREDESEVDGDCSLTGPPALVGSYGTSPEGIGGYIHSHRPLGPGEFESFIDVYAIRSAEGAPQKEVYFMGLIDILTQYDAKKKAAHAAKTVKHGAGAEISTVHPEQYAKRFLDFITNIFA

How did the IC50 (GRK2) turn out when `Cc1nc2ccc(CN(C)c3ccc(C(=O)N[C@@H](CCC(=O)O)C(=O)O)s3)cc2c(=O)[nH]1` [raltitrexed] was run?
Its IC50 is 6.7 µM.

`COc1cc(Nc2ncc3c(n2)-c2ccc(Cl)cc2C(c2c(F)cccc2OC)=NC3)ccc1C(=O)O` [alisertib] was tested. Which “single-temperature TPP with PRM-MS in K562 lysate” value (AURKA) did it give?
The value was “PRM data confirmed that all of these targets exhibit significantly higher abundance in the drug treatment groups”.

Which IC50 (PIP4K2C) does the source give for `NC(=O)c1nc(Nc2ccccc2)sc1NC(=O)C1CCCCC1` [UNC3230] here?
Its IC50 is 0.25 µM.
